Legend:
[1] = biological target: Tyrosine-protein kinase Tec (Homo sapiens) (UniProt P42680); assay: Inhibition of wild-type human partial length TEC (L341 to D620 residues) expressed in bacterial expression system assessed as residual activity at 1 uM by Kinomescan method relative to control
[2] = biological target: Serine/threonine-protein kinase WNK4 (Homo sapiens) (UniProt Q96J92); assay: Inhibition of wild-type human partial length WNK4 (A31 to D461 residues) expressed in mammalian expression system assessed as residual activity at 1 uM by Kinomescan method relative to control
[3] = biological target: Serine/threonine-protein kinase PLK3 (Homo sapiens) (UniProt Q9H4B4); assay: Inhibition of wild-type human partial length PLK3 (A42 to L334 residues) expressed in mammalian expression system assessed as residual activity at 1 uM by Kinomescan method relative to control
[4] = biological target: Eukaryotic translation initiation factor 2-alpha kinase 1 (Homo sapiens) (UniProt Q9BQI3); assay: Inhibition of wild-type human partial length EIF2AK1 (Q147 to E603 residues) expressed in mammalian expression system assessed as residual activity at 1 uM by Kinomescan method relative to control
[5] = test system: ALK tyrosine kinase receptor (Homo sapiens), Q9UM73 [L1196M]; assay: Inhibition of […] human partial length ALK L1196M mutant (I1088 to E1409 residues) expressed in mammalian expression system assessed as residual activity at 1 uM by Kinomescan method relative to control
[6] = biological target: Proto-oncogene tyrosine-protein kinase receptor Ret (Homo sapiens) (UniProt P07949); assay: Inhibition of wild-type human partial length RET (E713 to D1014 residues) expressed in bacterial expression system assessed as residual activity at 1 uM by Kinomescan method relative to control
[7] = biological target: Mitogen-activated protein kinase 1 (Homo sapiens) (UniProt P28482); assay: Inhibition of wild-type human full length ERK2 (M1 to S360 residues) expressed in bacterial expression system assessed as residual activity at 1 uM by Kinomescan method relative to control
[8] = biological target: Tyrosine-protein kinase BTK (Homo sapiens, UniProt Q06187); assay: Inhibition of full length recombinant human N-terminal His tagged […] expressed in baculovirus infected Sf9 insect cells using poly (Glu,Tyr)4:1 as substrate pretreated for 60 mins followed by substrate addition after 1 hr by ADP-Glo luminescence assay
[9] = biological target: Platelet-derived growth factor receptor beta (Homo sapiens) (UniProt P09619); assay: Inhibition of wild-type human partial length PDGFRB (V582 to Y1009 residues) expressed in bacterial expression system assessed as residual activity at 1 uM by Kinomescan method relative to control
[10] = biological target: Non-receptor tyrosine-protein kinase TYK2 (Homo sapiens) (UniProt P29597); assay: Inhibition of wild-type human partial length TYK2 JH2 pseudokinase domain (G556 to D888 residues) expressed in mammalian expression system assessed as residual activity at 1 uM by Kinomescan method relative to control
[11] = biological target: Ephrin type-A receptor 6 (Homo sapiens) (UniProt Q9UF33); assay: Inhibition of wild-type human partial length EPHA6 (Y700 to E1046 residues) expressed in bacterial expression system assessed as residual activity at 1 uM by Kinomescan method relative to control
[12] = biological target: Serine/threonine-protein kinase WNK3 (Homo sapiens) (UniProt Q9BYP7); assay: Inhibition of wild-type human partial length WNK3 (M1 to D434 residues) expressed in mammalian expression system assessed as residual activity at 1 uM by Kinomescan method relative to control

Serine/threonine-protein kinase WNK4 (Homo sapiens), sequence (Q96J92 whole entry, the tested form may be a part): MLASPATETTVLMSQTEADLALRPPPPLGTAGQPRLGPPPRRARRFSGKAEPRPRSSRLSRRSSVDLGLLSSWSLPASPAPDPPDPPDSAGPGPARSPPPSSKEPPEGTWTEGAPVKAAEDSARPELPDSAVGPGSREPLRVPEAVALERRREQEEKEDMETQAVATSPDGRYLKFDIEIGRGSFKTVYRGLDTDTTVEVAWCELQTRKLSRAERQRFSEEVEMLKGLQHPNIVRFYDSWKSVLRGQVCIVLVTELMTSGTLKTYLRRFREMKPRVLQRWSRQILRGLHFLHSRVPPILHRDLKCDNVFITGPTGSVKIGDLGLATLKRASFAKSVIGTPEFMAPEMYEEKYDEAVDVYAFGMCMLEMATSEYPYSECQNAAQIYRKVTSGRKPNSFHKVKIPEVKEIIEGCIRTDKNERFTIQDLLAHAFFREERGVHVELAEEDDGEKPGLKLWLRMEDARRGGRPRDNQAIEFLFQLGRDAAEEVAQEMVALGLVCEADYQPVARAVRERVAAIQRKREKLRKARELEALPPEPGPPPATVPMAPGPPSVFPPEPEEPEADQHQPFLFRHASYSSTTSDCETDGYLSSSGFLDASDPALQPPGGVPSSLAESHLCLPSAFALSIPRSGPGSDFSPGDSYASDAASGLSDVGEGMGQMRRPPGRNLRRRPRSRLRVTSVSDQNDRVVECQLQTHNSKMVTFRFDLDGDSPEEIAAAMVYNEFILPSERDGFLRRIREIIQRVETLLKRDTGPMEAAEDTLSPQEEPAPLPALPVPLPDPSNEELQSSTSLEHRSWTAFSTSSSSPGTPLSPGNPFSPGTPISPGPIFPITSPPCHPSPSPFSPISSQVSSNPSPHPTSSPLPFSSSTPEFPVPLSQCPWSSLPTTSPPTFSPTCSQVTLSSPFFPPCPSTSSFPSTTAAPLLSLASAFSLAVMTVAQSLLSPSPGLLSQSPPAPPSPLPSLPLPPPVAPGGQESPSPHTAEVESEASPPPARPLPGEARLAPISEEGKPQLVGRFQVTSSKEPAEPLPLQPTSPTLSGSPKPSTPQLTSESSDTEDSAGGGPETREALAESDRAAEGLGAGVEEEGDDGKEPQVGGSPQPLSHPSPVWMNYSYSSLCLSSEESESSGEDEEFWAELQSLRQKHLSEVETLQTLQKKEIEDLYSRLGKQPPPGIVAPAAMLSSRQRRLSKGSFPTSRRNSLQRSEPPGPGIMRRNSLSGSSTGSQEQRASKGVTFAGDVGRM
Ephrin type-A receptor 6 (Homo sapiens), sequence (Q9UF33 whole entry, the tested form may be a part): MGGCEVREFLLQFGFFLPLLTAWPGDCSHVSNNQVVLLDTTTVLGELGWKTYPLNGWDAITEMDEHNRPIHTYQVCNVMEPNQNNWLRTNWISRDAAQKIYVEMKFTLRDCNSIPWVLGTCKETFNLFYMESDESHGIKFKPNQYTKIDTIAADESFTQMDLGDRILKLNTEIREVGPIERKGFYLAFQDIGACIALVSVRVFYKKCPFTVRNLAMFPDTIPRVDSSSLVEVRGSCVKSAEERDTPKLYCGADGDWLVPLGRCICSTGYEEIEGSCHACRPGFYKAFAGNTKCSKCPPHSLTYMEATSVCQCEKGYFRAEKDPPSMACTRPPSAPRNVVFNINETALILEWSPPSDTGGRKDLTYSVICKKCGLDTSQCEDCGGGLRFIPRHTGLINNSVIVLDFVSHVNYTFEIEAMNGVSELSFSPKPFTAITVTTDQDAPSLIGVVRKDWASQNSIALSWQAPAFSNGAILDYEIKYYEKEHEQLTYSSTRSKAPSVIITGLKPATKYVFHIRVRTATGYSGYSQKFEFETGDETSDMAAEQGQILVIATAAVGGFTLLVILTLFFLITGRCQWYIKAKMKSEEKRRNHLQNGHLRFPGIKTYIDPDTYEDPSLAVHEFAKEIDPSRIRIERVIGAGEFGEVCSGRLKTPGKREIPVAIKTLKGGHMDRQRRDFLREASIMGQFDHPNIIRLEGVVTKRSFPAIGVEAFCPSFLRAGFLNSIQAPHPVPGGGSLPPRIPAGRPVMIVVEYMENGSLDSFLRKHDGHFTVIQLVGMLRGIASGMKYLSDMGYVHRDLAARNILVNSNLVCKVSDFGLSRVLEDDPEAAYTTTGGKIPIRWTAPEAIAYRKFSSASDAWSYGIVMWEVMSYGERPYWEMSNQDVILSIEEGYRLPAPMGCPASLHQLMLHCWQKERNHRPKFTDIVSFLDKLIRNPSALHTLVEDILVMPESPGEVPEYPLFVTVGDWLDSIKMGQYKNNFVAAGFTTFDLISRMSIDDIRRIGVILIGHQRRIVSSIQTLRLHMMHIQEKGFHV
Tyrosine-protein kinase BTK, sequence (Q06187 whole entry, the tested form may be a part): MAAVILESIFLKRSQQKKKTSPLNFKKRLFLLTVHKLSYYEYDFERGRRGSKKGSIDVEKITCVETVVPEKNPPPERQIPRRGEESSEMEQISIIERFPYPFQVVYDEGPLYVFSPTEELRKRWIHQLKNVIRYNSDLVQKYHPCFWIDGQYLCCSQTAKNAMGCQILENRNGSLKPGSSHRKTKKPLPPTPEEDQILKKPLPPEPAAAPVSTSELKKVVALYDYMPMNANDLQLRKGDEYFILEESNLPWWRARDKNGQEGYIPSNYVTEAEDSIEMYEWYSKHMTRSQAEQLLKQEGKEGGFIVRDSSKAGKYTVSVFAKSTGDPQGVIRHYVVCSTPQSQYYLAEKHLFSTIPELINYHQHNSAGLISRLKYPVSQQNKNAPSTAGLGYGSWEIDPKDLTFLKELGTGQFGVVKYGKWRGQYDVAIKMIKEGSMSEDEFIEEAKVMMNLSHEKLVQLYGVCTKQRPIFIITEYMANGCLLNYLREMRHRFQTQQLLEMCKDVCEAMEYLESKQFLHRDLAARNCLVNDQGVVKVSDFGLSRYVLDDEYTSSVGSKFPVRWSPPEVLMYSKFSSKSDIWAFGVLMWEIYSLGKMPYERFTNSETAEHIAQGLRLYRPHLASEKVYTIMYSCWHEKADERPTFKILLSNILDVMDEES
ALK tyrosine kinase receptor (Homo sapiens), Q9UM73 [L1196M], sequence (Q9UM73 whole entry L1196M, looked up, the tested form may be a part): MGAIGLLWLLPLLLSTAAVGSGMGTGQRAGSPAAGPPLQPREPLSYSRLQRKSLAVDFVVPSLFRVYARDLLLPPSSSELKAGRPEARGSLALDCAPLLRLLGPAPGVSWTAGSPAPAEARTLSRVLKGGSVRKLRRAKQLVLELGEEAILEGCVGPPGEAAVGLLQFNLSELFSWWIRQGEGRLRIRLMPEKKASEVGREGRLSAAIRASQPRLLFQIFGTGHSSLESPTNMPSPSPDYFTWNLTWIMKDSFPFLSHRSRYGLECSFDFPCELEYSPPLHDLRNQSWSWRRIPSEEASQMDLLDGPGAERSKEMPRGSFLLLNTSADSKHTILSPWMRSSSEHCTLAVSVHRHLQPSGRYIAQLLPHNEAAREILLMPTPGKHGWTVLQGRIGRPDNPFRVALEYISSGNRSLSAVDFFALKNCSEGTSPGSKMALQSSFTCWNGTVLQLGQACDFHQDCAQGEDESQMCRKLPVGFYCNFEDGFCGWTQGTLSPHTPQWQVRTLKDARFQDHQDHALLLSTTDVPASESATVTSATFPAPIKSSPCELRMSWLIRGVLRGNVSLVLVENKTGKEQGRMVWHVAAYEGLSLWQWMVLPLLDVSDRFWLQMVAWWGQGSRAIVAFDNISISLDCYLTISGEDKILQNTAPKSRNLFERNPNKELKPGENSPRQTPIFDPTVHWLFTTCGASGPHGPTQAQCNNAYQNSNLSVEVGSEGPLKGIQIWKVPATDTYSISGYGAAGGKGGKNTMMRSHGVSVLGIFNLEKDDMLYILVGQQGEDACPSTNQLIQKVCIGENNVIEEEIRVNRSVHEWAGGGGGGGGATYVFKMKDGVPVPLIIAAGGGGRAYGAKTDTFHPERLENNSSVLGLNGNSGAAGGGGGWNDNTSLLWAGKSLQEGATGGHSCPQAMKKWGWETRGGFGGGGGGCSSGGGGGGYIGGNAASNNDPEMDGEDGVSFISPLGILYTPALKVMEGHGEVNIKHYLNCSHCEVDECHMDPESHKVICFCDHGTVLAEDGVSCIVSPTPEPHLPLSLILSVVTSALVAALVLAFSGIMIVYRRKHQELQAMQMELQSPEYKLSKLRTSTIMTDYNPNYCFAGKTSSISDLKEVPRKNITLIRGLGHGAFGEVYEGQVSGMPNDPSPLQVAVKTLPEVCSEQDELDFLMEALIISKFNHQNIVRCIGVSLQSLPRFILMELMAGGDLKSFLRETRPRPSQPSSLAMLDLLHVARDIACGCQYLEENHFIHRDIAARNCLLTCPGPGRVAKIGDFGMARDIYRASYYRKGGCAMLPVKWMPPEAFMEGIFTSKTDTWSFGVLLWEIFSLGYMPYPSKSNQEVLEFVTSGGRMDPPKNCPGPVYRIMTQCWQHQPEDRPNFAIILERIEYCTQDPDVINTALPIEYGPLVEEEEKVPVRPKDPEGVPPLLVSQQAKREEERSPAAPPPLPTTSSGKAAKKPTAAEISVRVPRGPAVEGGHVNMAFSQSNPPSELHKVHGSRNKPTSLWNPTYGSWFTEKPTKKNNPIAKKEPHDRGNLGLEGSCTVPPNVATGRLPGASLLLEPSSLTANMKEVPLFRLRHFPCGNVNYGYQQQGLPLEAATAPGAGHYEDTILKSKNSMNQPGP
Mitogen-activated protein kinase 1 (Homo sapiens), sequence (P28482 whole entry, the tested form may be a part): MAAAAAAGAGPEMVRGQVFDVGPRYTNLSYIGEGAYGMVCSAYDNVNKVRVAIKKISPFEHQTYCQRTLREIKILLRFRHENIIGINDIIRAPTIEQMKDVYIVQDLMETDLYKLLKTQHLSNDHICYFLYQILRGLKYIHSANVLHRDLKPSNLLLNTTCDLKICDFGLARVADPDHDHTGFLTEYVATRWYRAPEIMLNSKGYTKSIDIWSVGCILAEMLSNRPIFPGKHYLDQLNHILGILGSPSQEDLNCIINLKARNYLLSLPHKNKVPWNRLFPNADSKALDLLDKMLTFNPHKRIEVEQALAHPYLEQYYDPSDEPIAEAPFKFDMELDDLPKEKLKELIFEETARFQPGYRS

C=CC(=O)Nc1cc(Nc2cc(-c3cccc(NC(=O)c4ccc(C(C)(C)C)cc4)c3C)cn(C)c2=O)ccc1C(=O)N1CCOCC1
Activity [1]: 95%
Activity [2]: 100%
Activity [3]: 95%
Activity [4]: 84%
Activity [5]: 96%
Activity [6]: 87%
Activity [7]: 91%
IC50 [8]: 7 nM
Activity [9]: 92%
Activity [10]: 86%
Activity [11]: 93%
Activity [12]: 94%
